# Test results: patent publication EP1090023B1 (GLAXO GROUP LIMITED, priority 1998, dated 1999)
# Assays:
# Assay type in all cases: cell-based
# adenosine 2a = adenosine 2a (Homo sapiens, UniProt P29274); assay: Agonist activity against adenosine receptor subtypes, CHO cells with cAMP response element/SPAP reporter (basal cAMP); conditions: ratio to EC50 of NECA; transfected CHO cells; effect on basal cAMP via SPAP
# Description: (§1) Compounds of the invention were tested for in vitro and in vivo biological activity in accordance with the following screens: • (1) Agonist activity against adenosine 2a, adenosine 1 and adenosine 3 receptor subtypes.
# (§2) Agonist selectivity of compounds against other human adenosine receptors was determined using Chinese hamster ovary (CHO) cells transfected with the gene for the relevant human adenosine receptor following a method based on that of Castanon and Spevak, 1994 . The CHO cells were also transfected with cyclic AMP response elements promoting the gene for secreted placental alkaline phosphatase (SPAP) (Wood, 1995). The effect of test compounds was determined by their effects on basal levels of cAMP (A2a) or on forskolin-enhanced cAMP (A1 and A3) as reflected by changes in levels of SPAP. EC50 values for compounds were then determined as a ratio to that of the non-selective agonist N-ethyl carboxamide adenosine (NECA).
# adenosine 1 = biological target: T1, adenosine 1 (Homo sapiens, UniProt P30542); assay: Agonist activity against adenosine receptor subtypes, CHO cells with cAMP response element/SPAP reporter (forskolin-enhanced cAMP); conditions: ratio to EC50 of NECA; transfected CHO cells; effect on forskolin-enhanced cAMP via SPAP
# T1 sequence (P30542 1-326): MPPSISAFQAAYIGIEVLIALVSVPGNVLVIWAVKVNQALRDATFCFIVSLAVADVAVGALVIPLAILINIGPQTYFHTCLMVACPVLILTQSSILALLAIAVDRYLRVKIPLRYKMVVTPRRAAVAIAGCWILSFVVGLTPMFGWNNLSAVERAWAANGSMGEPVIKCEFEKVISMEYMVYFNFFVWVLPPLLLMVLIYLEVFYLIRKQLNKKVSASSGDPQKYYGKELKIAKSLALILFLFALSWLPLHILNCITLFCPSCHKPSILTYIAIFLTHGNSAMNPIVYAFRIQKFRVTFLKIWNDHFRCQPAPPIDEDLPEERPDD
# Description: as §1, §2
# adenosine 3 = biological target: T2, adenosine 3 (Homo sapiens, UniProt P0DMS8); assay: as above; conditions: ratio to EC50 of NECA; transfected CHO cells; effect on forskolin-enhanced cAMP via SPAP
# T2 sequence (P0DMS8 1-318): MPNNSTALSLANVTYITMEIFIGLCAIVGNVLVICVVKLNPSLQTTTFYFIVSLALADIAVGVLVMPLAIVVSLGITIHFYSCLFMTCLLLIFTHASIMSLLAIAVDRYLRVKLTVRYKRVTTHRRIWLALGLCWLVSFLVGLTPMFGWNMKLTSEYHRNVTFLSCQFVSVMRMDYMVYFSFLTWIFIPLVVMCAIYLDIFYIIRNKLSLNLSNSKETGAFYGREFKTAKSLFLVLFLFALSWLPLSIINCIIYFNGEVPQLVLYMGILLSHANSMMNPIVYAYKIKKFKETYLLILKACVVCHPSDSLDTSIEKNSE
# Description: as §1, §2
# Sequence of adenosine 2a (P29274 whole entry): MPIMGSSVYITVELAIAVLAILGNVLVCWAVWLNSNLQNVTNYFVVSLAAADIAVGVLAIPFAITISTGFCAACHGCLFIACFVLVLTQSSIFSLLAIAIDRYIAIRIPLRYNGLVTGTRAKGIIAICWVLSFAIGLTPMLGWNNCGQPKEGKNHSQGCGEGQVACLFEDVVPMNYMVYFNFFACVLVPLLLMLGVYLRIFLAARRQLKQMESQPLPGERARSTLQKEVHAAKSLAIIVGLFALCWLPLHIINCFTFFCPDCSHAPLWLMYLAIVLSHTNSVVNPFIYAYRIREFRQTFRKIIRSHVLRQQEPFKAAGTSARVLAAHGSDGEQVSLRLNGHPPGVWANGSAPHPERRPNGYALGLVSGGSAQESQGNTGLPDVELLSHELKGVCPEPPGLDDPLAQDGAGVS
SMILES,A2a (EC50 values as a ratio of that of NECA) (adenosine 2a),A1 (EC50 values as a ratio of that of NECA) (adenosine 1),A3 (EC50 values as a ratio of that of NECA) (adenosine 3)
"Cc1nnc([C@H]2O[C@@H](n3cnc4c(NCC(c5ccccc5)c5ccccc5)nc(NCCN5CCCC5)nc43)[C@H](O)[C@@H]2O)[nH]1.O=CO [Example 1, (2R,3R,4S,5R)-2-[6-(2,2-Diphenyl-ethylamino)-2-(2-pyrrolidin-1-yl-ethylamino)-purin-9-yl]-5-(5-methyl-4H-[1,2,4]triazol-3-yl)-tetrahydro-furan-3,4-diol formate]",14.6,>8325,>1088
"Cc1nnc([C@H]2O[C@@H](n3cnc4c(NCC(c5ccccc5)c5ccccc5)nc(N[C@H](CO)Cc5ccccc5)nc43)[C@H](O)[C@@H]2O)[nH]1.O=CO [Example 2, (2R,3R,4S,5R)-2-[6-(2,2-Diphenyl-ethylamino)-2-(1S-hydroxymethyl-2-phenyl-ethylamino)-purin-9-yl]-5-(5-methyl-4H-[1,2,4]triazol-3-yl)-tetrahydro-furan-3,4-diol formate]",2.46,>=7728,>1087
"Cc1nnc([C@H]2O[C@@H](n3cnc4c(NCC(c5ccccc5)c5ccccc5)nc(NCCc5cn(C)cn5)nc43)[C@H](O)[C@@H]2O)[nH]1.O=CO [Example 3, (2R,3R,4S,5R)-2-{6-(2,2-Diphenyl-ethylamino)-2-[2-(1-methyl-1H-imidazol-4-yl)-ethylamino]-purin-9-yl}-5-(5-methyl-4H-[1,2,4]triazol-3-yl)-tetrahydro-furan-3,4-diol formate]",3.54,>9058,>698
"Cc1nnc([C@H]2O[C@@H](n3cnc4c(NCC(c5ccccc5)c5ccccc5)nc(N[C@H]5CC[C@H](N)CC5)nc43)[C@H](O)[C@@H]2O)[nH]1.O=CO [Example 4, (2R,3R,4S,5R)-2-[2-(trans-4-Amino-cyclohexylamino)-6-(2,2-diphenyl-ethylamino)-purin-9-yl]-5-(5-methyl-4H-[1,2,4]triazol-3-yl)-tetrahydro-furan-3,4-diol formate]",5.1,4686,>1052
"CCc1nnc([C@H]2O[C@@H](n3cnc4c(NCC(c5ccccc5)c5ccccc5)nc(N[C@H]5CC[C@H](N)CC5)nc43)[C@H](O)[C@@H]2O)[nH]1.O=CO [Example 6, (2R,3R,4S,5R)-2-[2-(trans-4-Amino-cyclohexylamino)-6-(2,2-diphenyl-ethylamino)-purin-9-yl]-5-(5-ethyl-4H-[1,2,4]triazol-3-yl)-tetrahydro-furan-3,4-diol formate]",12.3,6739,>183
"CCc1nnc([C@H]2O[C@@H](n3cnc4c(NCC(c5ccccc5)c5ccccc5)nc(NCCN5CCOCC5)nc43)[C@H](O)[C@@H]2O)[nH]1.O=CO [Example 8, (2R,3R,4S,5R)-2-[6-(2,2-Diphenyl-ethylamino)-2-(2-morpholin-4-yl-ethylamino)-purin-9-yl]-5-(5-ethyl-4H-[1,2,4]triazol-3-yl)-tetrahydro-furan-3,4-diol formate]",19.4,>10735,>183
"CC(C)c1nnc([C@H]2O[C@@H](n3cnc4c(NCC(c5ccccc5)c5ccccc5)nc(N[C@H]5CC[C@H](N)CC5)nc43)[C@H](O)[C@@H]2O)[nH]1.O=CO [Example 10, (2R,3R,4S,5R)-2-[2-(trans-4-Amino-cyclohexylamino)-6-(2,2-diphenyl-ethylamino)-purin-9-yl]-5-(5-isopropyl-4H-[1,2,4]triazol-3-yl)-tetrahydro-furan-3,4-diol formate]",16.85,1453.5,>326

# The remaining lines, values ahead:
A2a (EC50 values as a ratio of that of NECA) (adenosine 2a),A1 (EC50 values as a ratio of that of NECA) (adenosine 1),A3 (EC50 values as a ratio of that of NECA) (adenosine 3),SMILES
4.77,>8841,>194,"CCc1nc([C@H]2O[C@@H](n3cnc4c(NCC(c5ccccc5)c5ccccc5)nc(N[C@H]5CC[C@H](N)CC5)nc43)[C@H](O)[C@@H]2O)no1.O=CO.O=CO (relative stereo) [Example 12, (2R,3R,4S,5R)-2-[2-(trans-4-Amino-cyclohexylamino)-6-(2,2-diphenyl-ethylamino)-purin-9-yl]-5-(5-ethyl-[1,2,4]oxadiazol-3-yl)-tetrahydro-furan-3,4-diol diformate]"
26.3,1105.6,>173,"CCC(CC)Nc1nc(N[C@H]2CC[C@H](N)CC2)nc2c1ncn2[C@@H]1O[C@H](c2nnc(C3CC3)o2)[C@@H](O)[C@H]1O.O=CO.O=CO (relative stereo) [Example 36, (2R,3R,4S,5S)-2-[2-(trans-4-Amino-cyclohexylamino)-6-(1-ethyl-propylamino)-purin-9-yl]-5-(5-cyclopropyl-[1,3,4]oxadiazol-2-yl)-tetrahydro-furan-3,4-diol diformate]"
1,>=5194,>319,"CCc1nnc([C@H]2O[C@@H](n3cnc4c(NCC(c5ccccc5)c5ccccc5)nc(N[C@H](CO)Cc5ccccc5)nc43)[C@H](O)[C@@H]2O)[nH]1.O=CO [Example 5, (2R,3R,4S,5R)-2-[6-(2,2-Diphenyl-ethylamino)-2-(1S-hydroxymethyl-2-phenyl-ethylamino)-purin-9-yl]-5-(5-ethyl-4H-[1,2,4]triazol-3-yl)-tetrahydro-furan-3,4-diol formate]"
2.94,5327,>183,"CCc1nnc([C@H]2O[C@@H](n3cnc4c(NCC(c5ccccc5)c5ccccc5)nc(N[C@H](CO)C(C)C)nc43)[C@H](O)[C@@H]2O)[nH]1.O=CO [Example 7, (2R,3R,4S,5R)-2-[6-(2,2-Diphenyl-ethylamino)-2-(1S-hydroxymethyl-2-methyl-propylamino)-purin-9-yl]-5-(5-ethyl-4H-[1,2,4]triazol-3-yl)-tetrahydro-furan-3,4-diol formate]"
3.25,>6032,>147,"CCc1nnc([C@H]2O[C@@H](n3cnc4c(NCC(c5ccccc5)c5ccccc5)nc(N[C@@H]5CCNC5)nc43)[C@H](O)[C@@H]2O)[nH]1.O=CO [Example 9, (2R,3R,4S,5R)-2-[6-(2,2-Diphenyl-ethylamino)-2-(pyrrolidin-3R-ylamino)-purin-9-yl]-5-(5-ethyl-4H-[1,2,4]triazol-3-yl)-tetrahydro-furan-3,4-diol formate]"
17.97,2202,>257,"CC(C)c1nnc([C@H]2O[C@@H](n3cnc4c(NCC(c5ccccc5)c5ccccc5)nc(N[C@H](CO)Cc5ccccc5)nc43)[C@H](O)[C@@H]2O)[nH]1.O=CO [Example 11, (2R,3R,4S,5R)-2-[6-(2,2-Diphenyl-ethylamino)-2-(1S-hydroxymethyl-2-phenyl-ethylamino)-purin-9-yl]-5-(5-isopropyl-4H-[1,2,4]triazol-3-yl)-tetrahydro-furan-3,4-diol formate]"
